Where “and” joins values, the source holds several entries; their conditions need not be identical. Equal values may be shown once.
How the values were obtained:
Efl1 R1086Q = target: T1, Efl1 R1086Q (Saccharomyces cerevisiae, UniProt P53893, R1086Q); test: Isothermal titration calorimetry (ITC): binding of guanine nucleotides or Sdo1 to Efl1 R1086Q; settings: for Kd / -TΔSb / ΔGb / ΔHb / ΔCpb: guanine nucleotide; for ΔCpb: from ΔHb at 25–35 °C
T1 construct: made in house; host or cells: Saccharomyces cerevisiae
Procedure: All calorimetric measurements were carried out using MicroCal^TM iTC200 System (GE Healthcare, Northampton, MA, USA) in a temperature range of 25–35 °C. Experiments were performed in a buffer consisting of 50 mM Tris-HCl (pH 8.0), 150 mM NaCl, 100 µM DTT, and 5% glycerol. In the titrations with Mg^2+-bound nucleotides, both the ligand and protein solutions contained 5 mM MgCl2. In the case of titrations with Mg^2+-free nucleotide, both the ligand and protein solutions were supplemented with 2 mM EDTA to sequester any residual trace of metal ions in solution. Protein samples and ligands were prepared in the exact same buffer prior to each titration. Protein concentration in the cell comprised 30–50 µM GTPase, while the ligand concentration in the syringe was 2–3 mM for GTP, MgGTP, GDP, and MgGDP. To ensure measuring the interaction of the complex Efl1 R1086Q•Sdo1 with the nucleotide, an eight-fold concentration excess of Sdo1 was used compared with that of the enzyme. […] The titration schedule consisted of 15–20 consecutive injections of the ligand with 5 min intervals between injections and a stirring rate of 700 rpm. The dilution heat of the ligand was obtained by adding the ligand to a buffer solution under identical conditions and with the same injection schedule used for the protein sample. All samples were degassed for 10 min prior to the experiment.
The binding isotherms obtained for the isolated GTPase in the presence of Mg(II) were analysed using a ternary model in which the protein can bind to the free nucleotide (G(D)TP) or that bound to one magnesium ion (MgG(D)TP); additionally, GTP may also exist in the form of Mg2GTP, which is not recognised by the protein. The derivation of this coupled-equilibria model can be reviewed in [6, 31]. The binding constant (Kb), the enthalpy change (∆Hb), and the stoichiometry (n) were obtained with the non-linear routines implemented in Origin 5.0 (OriginLab, Co., Northampton, MA, USA) using a one-binding-site model as described in [32, 33]. The heterotropic cooperativity for the binding of guanine nucleotides and Sdo1 to Efl1 R1086Q were calculated as previously described in [6, 32]. The cooperative effects of Mg(II) on the binding of guanine nucleotides to Efl1 R1086Q alone and bound to Sdo1 were calculated as follows:κ = KE-MG/KE-G κ = KES-MG/KES-G Δh = ΔHE-MG − ΔHE-G Δh = ΔHES-MG − ΔHES-G where subscripts E-MG and E-G stand for the association of the metal-bound and metal-free guanine nucleotide with mutant Efl1, respectively. Corresponding expressions applied to the heterotropic cooperativity of the binding of nucleotides to the preformed complex, Efl1•Sdo1 (ES).
The impact of Sdo1 on the binding of Efl1 R1086Q to guanine nucleotides in the presence of magnesium ions is contained in KES-MG and ΔHES-MG relative to the KE-S and ΔHE-S values; analogous ratios report the effects in the absence of Mg(II):κ = KES-MG/KE-S κ = KES-G/KE-G Δh = ΔHES-MG − ΔHE-S Δh = ΔHES-G − ΔHE-G
The corresponding cooperative entropy change was calculated as:TΔs = Δh − Δg = Δh + RTlnκ
The detailed methodology and equations to compute the changes in the accessible surface area (∆ASA) of the GTPase upon binding to nucleotides and the ∆S energetic-based parameters are reported in [6]. Briefly, the water-accessible areas (ASAs) were computed using programme NACCESS, while the changes in accessible surface area (ΔASA) upon the formation of each GTPase–nucleotide complex were estimated considering the difference between the complex and the sum of the free interacting partners. The calculated polar (ΔASAp) and apolar (ΔASAap) area changes were subsequently used to estimate the free molecular partners. […]

wild-type Efl1•Sdo1 = system: wild-type Efl1•Sdo1; design: method as in PMID 30780079; settings: −Mg^2+, cited from earlier work
[1] = Effect of Mg^2+, Efl1 R1086Q − Sdo1, 25 °C
[2] = Effect of Mg^2+, Efl1 R1086Q − Sdo1, 30 °C
[3] = Effect of Mg^2+, Efl1 R1086Q − Sdo1, 35 °C
[4] = Effect of Sdo1, Efl1 R1086Q + Mg^2+, 25 °C
[5] = Effect of Sdo1, Efl1 R1086Q + Mg^2+, 30 °C
[6] = Effect of Sdo1, Efl1 R1086Q + Mg^2+, 35 °C
[7] = Effect of Sdo1, Efl1 R1086Q − Mg^2+, 25 °C
[8] = Effect of Sdo1, Efl1 R1086Q − Mg^2+, 30 °C
[9] = Effect of Sdo1, Efl1 R1086Q − Mg^2+, 35 °C

T1 sequence (P53893 whole entry R1086Q): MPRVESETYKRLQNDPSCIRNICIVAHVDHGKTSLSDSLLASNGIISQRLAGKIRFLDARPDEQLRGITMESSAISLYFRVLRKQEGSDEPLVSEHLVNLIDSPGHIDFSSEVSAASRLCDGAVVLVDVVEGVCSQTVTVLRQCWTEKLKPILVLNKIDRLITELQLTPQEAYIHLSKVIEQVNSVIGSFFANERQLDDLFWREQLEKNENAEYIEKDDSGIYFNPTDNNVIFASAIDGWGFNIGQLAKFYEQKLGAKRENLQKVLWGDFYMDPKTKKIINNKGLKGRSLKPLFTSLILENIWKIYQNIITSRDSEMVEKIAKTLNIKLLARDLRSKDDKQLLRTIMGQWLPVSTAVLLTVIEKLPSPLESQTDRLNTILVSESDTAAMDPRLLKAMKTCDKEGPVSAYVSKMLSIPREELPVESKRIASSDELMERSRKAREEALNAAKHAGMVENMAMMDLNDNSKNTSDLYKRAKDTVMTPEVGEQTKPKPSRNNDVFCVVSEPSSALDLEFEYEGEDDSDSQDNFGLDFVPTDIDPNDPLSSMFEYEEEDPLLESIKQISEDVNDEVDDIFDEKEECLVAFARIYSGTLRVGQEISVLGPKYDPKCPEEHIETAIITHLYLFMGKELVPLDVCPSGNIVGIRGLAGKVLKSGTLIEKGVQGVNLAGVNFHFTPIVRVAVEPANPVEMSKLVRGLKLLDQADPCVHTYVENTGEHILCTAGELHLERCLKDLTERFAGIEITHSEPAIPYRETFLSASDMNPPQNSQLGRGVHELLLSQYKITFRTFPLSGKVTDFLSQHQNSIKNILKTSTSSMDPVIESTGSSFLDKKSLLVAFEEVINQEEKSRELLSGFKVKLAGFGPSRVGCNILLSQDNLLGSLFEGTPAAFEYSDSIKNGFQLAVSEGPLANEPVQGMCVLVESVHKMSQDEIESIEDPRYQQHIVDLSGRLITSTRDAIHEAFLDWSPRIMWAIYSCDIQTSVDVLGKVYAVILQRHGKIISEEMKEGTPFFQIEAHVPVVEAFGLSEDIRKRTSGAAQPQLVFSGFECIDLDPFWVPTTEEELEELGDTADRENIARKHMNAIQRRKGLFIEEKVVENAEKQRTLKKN

SMILES: Nc1nc2c(ncn2[C@@H]2O[C@H](COP(=O)(O)OP(=O)(O)OP(=O)(O)O)[C@@H](O)[C@H]2O)c(=O)[nH]1 [GTP]
- Nconfres (number of residues changing conformation, absolute value) (Efl1 R1086Q; +Mg^2+, 30 °C): 3
- Nconfrotb (number of routable bonds changing conformation, absolute value) (Efl1 R1086Q; +Mg^2+, 30 °C): 21
- ΔCpconf (Efl1 R1086Q; +Mg^2+, 30 °C): 35 cal mol^−1 K^−1
- ΔSb (Efl1 R1086Q; +Mg^2+, 30 °C): 25 cal mol^−1 K^−1
- ΔSconf (Efl1 R1086Q; +Mg^2+, 30 °C): 36 cal mol^−1 K^−1
- ΔSsolv (Efl1 R1086Q; +Mg^2+, 30 °C): −2 cal mol^−1 K^−1
- −ΔASAconf (Efl1 R1086Q; +Mg^2+, 30 °C): −157 Å^2
- -TΔs (Efl1 R1086Q; [1]): 0.5 kcal/mol
- Δg (Efl1 R1086Q; [1]): -0.1 kcal/mol
- Δh (Efl1 R1086Q; [1]): -0.56 kcal/mol
- κ (heterotropic cooperativity) (Efl1 R1086Q; [1]): 1.0
- -TΔs (Efl1 R1086Q; [2]): 1.2 kcal/mol
- Δg (Efl1 R1086Q; [2]): 0.6 kcal/mol
- Δh (Efl1 R1086Q; [2]): -0.63 kcal/mol
- κ (heterotropic cooperativity) (Efl1 R1086Q; [2]): 0.4
- -TΔs (Efl1 R1086Q; [3]): 1.3 kcal/mol
- Δg (Efl1 R1086Q; [3]): 0.5 kcal/mol
- Δh (Efl1 R1086Q; [3]): -0.78 kcal/mol
- κ (heterotropic cooperativity) (Efl1 R1086Q; [3]): 0.4
- -TΔs (Efl1 R1086Q; [4]): 2.5 kcal/mol
- Δg (Efl1 R1086Q; [4]): 0.3 kcal/mol
- Δh (Efl1 R1086Q; [4]): -2.1 kcal/mol
- κ (heterotropic cooperativity) (Efl1 R1086Q; [4]): 0.6
- -TΔs (Efl1 R1086Q; [5]): 4.8 kcal/mol
- Δg (Efl1 R1086Q; [5]): 0.7 kcal/mol
- Δh (Efl1 R1086Q; [5]): -4.1 kcal/mol
- κ (heterotropic cooperativity) (Efl1 R1086Q; [5]): 0.3
- -TΔs (Efl1 R1086Q; [6]): 7.1 kcal/mol
- Δg (Efl1 R1086Q; [6]): 0.9 kcal/mol
- Δh (Efl1 R1086Q; [6]): -6.2 kcal/mol
- κ (heterotropic cooperativity) (Efl1 R1086Q; [6]): 0.3
- -TΔs (Efl1 R1086Q; [7]): 5.6 kcal/mol
- Δg (Efl1 R1086Q; [7]): 0.0 kcal/mol
- Δh (Efl1 R1086Q; [7]): -5.6 kcal/mol
- κ (heterotropic cooperativity) (Efl1 R1086Q; [7]): 1.0
- -TΔs (Efl1 R1086Q; [8]): 6.3 kcal/mol
- Δg (Efl1 R1086Q; [8]): 0.7 kcal/mol
- Δh (Efl1 R1086Q; [8]): -5.6 kcal/mol
- κ (heterotropic cooperativity) (Efl1 R1086Q; [8]): 0.3
- -TΔs (Efl1 R1086Q; [9]): 6.5 kcal/mol
- Δg (Efl1 R1086Q; [9]): 0.9 kcal/mol
- Δh (Efl1 R1086Q; [9]): -5.6 kcal/mol
- κ (heterotropic cooperativity) (Efl1 R1086Q; [9]): 0.2
- Kd (Efl1 R1086Q; +Mg^2+, 25 °C): 16 ± 2 µM
- Kd (Efl1 R1086Q; +Mg^2+, 30 °C): 16 ± 3 µM
- Kd (Efl1 R1086Q; +Mg^2+, 35 °C): 13 ± 2 µM
- Kd (Efl1 R1086Q; −Mg^2+, 25 °C): 17 ± 5 µM
- Kd (Efl1 R1086Q; −Mg^2+, 30 °C): 6 ± 1 µM
- Kd (Efl1 R1086Q; −Mg^2+, 35 °C): 6 ± 1 µM
- -TΔSb (Efl1 R1086Q; +Mg^2+, 25 °C): -7.57 kcal/mol
- ΔGb (Efl1 R1086Q; +Mg^2+, 25 °C): -6.53 kcal/mol
- ΔHb (Efl1 R1086Q; +Mg^2+, 25 °C): 1.04 ± 0.05 kcal/mol
- -TΔSb (Efl1 R1086Q; +Mg^2+, 30 °C): -7.74 kcal/mol
- ΔGb (Efl1 R1086Q; +Mg^2+, 30 °C): -6.67 kcal/mol
- ΔHb (Efl1 R1086Q; +Mg^2+, 30 °C): 1.07 ± 0.03 kcal/mol
- -TΔSb (Efl1 R1086Q; +Mg^2+, 35 °C): -8.0 kcal/mol
- ΔGb (Efl1 R1086Q; +Mg^2+, 35 °C): -6.88 kcal/mol
- ΔHb (Efl1 R1086Q; +Mg^2+, 35 °C): 1.12 ± 0.06 kcal/mol
- ΔCpb (Efl1 R1086Q; +Mg^2+): 10 ± 2 cal mol^−1 K^−1 and 10 cal mol^−1 K^−1
- -TΔSb (Efl1 R1086Q; −Mg^2+, 25 °C): -8.12 kcal/mol
- ΔGb (Efl1 R1086Q; −Mg^2+, 25 °C): -6.52 kcal/mol
- ΔHb (Efl1 R1086Q; −Mg^2+, 25 °C): 1.6 ± 0.3 kcal/mol
- -TΔSb (Efl1 R1086Q; −Mg^2+, 30 °C): -8.90 kcal/mol
- ΔGb (Efl1 R1086Q; −Mg^2+, 30 °C): -7.20 kcal/mol
- ΔHb (Efl1 R1086Q; −Mg^2+, 30 °C): 1.7 ± 0.1 kcal/mol
- -TΔSb (Efl1 R1086Q; −Mg^2+, 35 °C): -9.30 kcal/mol
- ΔGb (Efl1 R1086Q; −Mg^2+, 35 °C): -7.40 kcal/mol
- ΔHb (Efl1 R1086Q; −Mg^2+, 35 °C): 1.9 ± 0.1 kcal/mol
- ΔCpb (Efl1 R1086Q; −Mg^2+): 30 cal mol^−1 K^−1 and 30 ± 6 cal mol^−1 K^−1
- overall heat-capacity change to drive the protein into ternary complex GTPase•GTP•Sdo1 (Efl1 R1086Q; mutant Efl1): −410 cal mol^−1 K^−1
- Nconfres (number of residues changing conformation, absolute value) (Efl1 R1086Q; −Mg^2+, 30 °C): 4
- Nconfrotb (number of routable bonds changing conformation, absolute value) (Efl1 R1086Q; −Mg^2+, 30 °C): 27
- ΔCpconf (Efl1 R1086Q; −Mg^2+, 30 °C): 41 cal mol^−1 K^−1
- ΔSb (Efl1 R1086Q; −Mg^2+, 30 °C): 29 cal mol^−1 K^−1
- ΔSconf (Efl1 R1086Q; −Mg^2+, 30 °C): 44 cal mol^−1 K^−1
- ΔSsolv (Efl1 R1086Q; −Mg^2+, 30 °C): −7 cal mol^−1 K^−1
- −ΔASAconf (Efl1 R1086Q; −Mg^2+, 30 °C): −184 Å^2
- -TΔSb (wild-type Efl1•Sdo1; 30 °C): -4.7 kcal/mol
- Kd (wild-type Efl1•Sdo1; 30 °C): 11 µM
- ΔGb (wild-type Efl1•Sdo1; 30 °C): -6.8 kcal/mol
- ΔHb (wild-type Efl1•Sdo1; 30 °C): -2.1 ± 0.2 kcal/mol
- ΔCpb (wild-type Efl1•Sdo1): −90 cal mol^−1 K^−1 and −90 ± 5 cal mol^−1 K^−1
